Key:
[1] = tested on: GST-DCAF10; experiment: Streptavidin pull-down of GST-DCAF10 with biotinylated Nt-peptides; assay type: binding, human; details: for Binding to GST-DCAF10 (in words) / Nt-free reduction compared to Nt-Ac: 0.5 µM GST-DCAF10, 5 µM peptide, 1 h RT, WB; for Nt-free reduction compared to Nt-Ac: mean ± s.d., n = 3 independent binding assays
Protocol: To confirm direct interactions between peptides and DCAF10, we performed pull-down assays using bead-bound Nt-peptide variants incubated with purified full-length GST-DCAF10 or GST as a negative control (Fig. 2m–p and Supplementary Fig. 4a).
230 of 1:100), and desalted/concentrated on C18 reversed phase stage tips as previously
MS measurements settings are stated in MS measurements and raw file
BL21(DE3) cells (Thermo Fisher Scientific,
240 agar) plate containing 100 μg/mL ampicillin and 34 μg/mL chloramphenicol, then
Terrific broth (TB) medium (24 g/L yeast extract,
243 20 g/L tryptone, glycerol 4 mL/L, 100 mL/L phosphate buffer containing 0.17 M KH2PO4
244 and 0.72 M K2HPO4) was used to prepare a 1:100 dilution of the starter culture, and OD600
At OD600 = 1, protein induction was initiated by adding 1 mM
247 day, pellets were homogenized and lysed in glycerol lysis buffer (20 mM Tris-HCl pH
Lysis was performed on ice for 30 min, followed by
250 sonication (7 × 20 sec pulses with 20 sec breaks on ice) using a Bandelin sonoplus
Lysates were centrifuged at 4°C for 1 h
253 medium culture was lysed in 20 mL of supernatant (collected in 20 × 1 mL tubes). GST
255 agarose bead; Thermo Fisher Scientific, Waltham, MA, USA). For each 1 mL of
100 μL of GST magnetic beads
257 were washed twice with 500 μL of wash buffer (125 mM Tris-HCl pH 7.4, 150 mM NaCl,
The lysis supernatant was diluted 1:1 with
259 wash buffer, and incubated with the beads on an end-over-end rotator for 1 h at 25°C.
260 After incubation, the supernatant was removed, and the beads were washed twice with
Protein elution was then performed by incubating
263 pH 7.4, 250 mM NaCl, 0.3% Triton X-100) for 30 min at 25°C on an end-over-end rotator.
265 under the same conditions. Elution fractions were pooled and concentrated by
266 centrifugation (4°C, 25 min, 4500 rpm) using a 30 kDa cut-off concentrator (Merck
267 Millipore, #UFC803008, Darmstadt, Germany). Purified proteins were analyzed by
268 colloidal Coomassie stain, WB and MS.
270 Streptavidin pull-downs with GST-DCAF10 and biotinylated peptides
271 Streptavidin magnetic beads (DynabeadsTM MyOneTM Streptavidin T1; Thermo Fisher
272 Scientific, Waltham, MA, USA) were washed twice with 500 μL of wash buffer (125 mM
273 Tris-HCl pH 7.4, 150 mM NaCl, 0.1% Triton X-100). An excess of peptides was added
274 (to ensure full occupancy of the beads) and incubated for 30 min at RT. After peptide
275 binding, beads were again washed three times with 500 μL of wash buffer. The pull-down
276 was then performed in a 100 μL reaction volume with final concentrations of 0.5 µM
277 GST-DCAF10 and 5 µM peptide. GST-DCAF10 or GST alone (as a control) was added
278 to the peptide-streptavidin beads and incubated on a rotator for 1 h at RT. After incubation,
279 the beads were washed three times with 500 μL of wash buffer and resuspended in 4x
280 Laemmli buffer. 1/5 of the input (GST-DCAF10 and GST) and 9/10 of the sample were
281 loaded on a 10% SDS gel and blotted with anti-GST and anti-DCAF10 antibodies, while
282 1/10 was loaded on a 15% SDS gel and blotted with anti-streptavidin antibody to assess
283 equal peptide loading.
285 Streptavidin Sepharose High Performance, GE Healthcare, Chicago, IL, USA) were used.
286 After washing with a high salt wash buffer without detergents (125 mM Tris-HCl pH 7.4,
287 400 mM NaCl), an excess of peptides was added and incubated for 30 min at RT. For each
288 reaction, 10 µL of slurry beads were used. After peptide-binding, beads were again
289 washed once with a high salt wash buffer without detergents and twice with binding buffer
290 without detergents (125 mM Tris-HCl pH 7.4, 150 mM NaCl). The pull-downs were
291 performed in a 100 μL reaction volume in binding buffer without detergents with a final
292 concentration of 0.5 µM GST-DCAF10 and incubated rotating for 1 h at RT. After
293 incubation, the beads were washed five times with 500 μL of high salt wash buffer without […]

[2] = tested on: DCAF10; experiment: Peptide pull-down with quantitative MS, HeLa lysate, DCAF10; assay type: binding, human (HeLa); details: HeLa lysate; for DCAF10 binding (in words): Nt-Ac vs Nt-free peptides
Protocol: Beads presenting 10-residue synthetic Nt-peptides of proteins of interest in their free (Nt-free) or modified (e.g., Nt-acetylated) versions were incubated with lysates from HeLa cells, followed by MS-based quantification of retained binders (Fig. 1a).
Biotinylated 10-mer Nt-peptides (Nt-free, Nt-acetylated, and, where indicated, Nt-myristoylated; sequences in Supplementary Table 1) were synthesized with a C-terminal Lys3 spacer and biotin, immobilized on magnetic streptavidin beads, and incubated with HeLa or mouse liver lysates. After standardized washes, bound proteins were on-bead reduced/alkylated, digested with LysC/trypsin, desalted, and analysed by LC-MS in DIA mode (Orbitrap Exploris 480) as described previously[24]. Variants included endogenous Nt-sequences, swap and mutant (Ala-Ala-Ala or Nt-amino acids) peptides, and pairwise comparisons of conditions of interest.
All MS experiments were performed as independent biological triplicates. Relative protein quantification was carried out using the label-free algorithm integrated in DIA-NN[53], and statistical testing was performed in Perseus using a two-sided Student’s t test with permutation-based multiple-testing-adjusted p-values[53],[54], as specified in the figure legends. […] Volcano blots were visualized with RStudio (version 2023.06.0). […] Cell experiments were performed as biological replicates, and binding assays as independent assays. […] Data are presented as mean ± s.d. Fold changes are reported as the ratio of the normalized value for the condition of interest to the normalized control value, with mean ± s.d. computed across biological replicates.

In the case of “GCIKSKGKDSKK [Ac-Lyn, Nt-peptide of Lyn (aa 1–10 + KKK-biotin), Nt-acetylated]”, the “Binding to GST-DCAF10 (in words)” value ([1]; listed as Nt-acetylated Lyn) is reported as “bound robustly to GST-DCAF10”, the “DCAF10 binding, Nt-Ac vs Nt-Myr (in words)” value [2] is reported as “DCAF10 selectively recognizes the acetylated form” and the “DCAF10 binding (in words)” value [2] is reported as “bound to DCAF10”. The “log₂ difference Ac-Lyn vs Ac-THOC7, DCAF10” value ([2]; n = 3) was 5.83.

In the case of “GCIKSKGKDSKK [Nt-free Lyn, Nt-peptide of Lyn (aa 1–10 + KKK-biotin), Nt-free]”, the “Binding to GST-DCAF10 (in words)” value ([1]; listed as Lyn Nt-free) is reported as “bound only weakly” and the “Nt-free reduction compared to Nt-Ac” value [1] is reported as 88.5 ± 14.7%.

With “GCVQCKDKEAKK [Nt-free Fyn, Nt-peptide of Fyn, Nt-free]” the “Binding to GST-DCAF10 (in words)” value [1] was “bound only weakly” and the “Nt-free reduction compared to Nt-Ac” value [1] was 82.5 ± 10.8%.

For “GSNKSKPKDAKK [Ac-Src, Nt-peptide of Src, Nt-acetylated]”, the “Lower binding in pull-downs” value ([1]; compared with Lyn and Fyn) was ~ 30%, the “DCAF10 binding in initial pull-downs, log2” value ([2]; Ac-Src vs Nt-free Src) was about 5 log2 and the “DCAF10 binding (in words)” value [2] was “bound to DCAF10”. For the same sequence, the “DCAF10 binding, Nt-Ac vs Nt-Myr (in words)” value ([2]; listed as Nt-acetylated Src) was “DCAF10 selectively recognizes the acetylated form”.
